One data set relates to HeLa. In words: Potentiation factor, ratio of IC50 for methyl methanesulfonate to IC50 for methyl methanesulfonate with 200 nM drug for inhibition of human HeLa B cells.
Data set [1] addresses Poly [ADP-ribose] polymerase 1 (Homo sapiens, UniProt P09874).
The test system of data set [2] is SW-620. In words: Potentiation of methyl methanesulfonate-induced growth inhibition of human SW620 cells after 4 days by sulforhodamine B assay. The data set is classed as functional, cell-based. On the technique in general: Sulforhodamine B stains cellular protein and so reports cell mass.
The nature of data set [3]: Oral bioavailability in dog at 10 mg/kg, po. Format: ADME, organism-based, Canis lupus familiaris. The note with it: in vivo.
A further data set deals with HCC1937. In words: Cytotoxicity against BRCA1-deficient human HCC1937 cells upto 4 uM after 7 to 14 days by clonogenic assay. Format: functional, cell-based.
The nature of data set [4]: Half life in dog at 2.5 mg/kg, iv and 10 mg/kg, po. The note with it: in vivo. Format: ADME, organism-based, Canis lupus familiaris.
Data set [5] is described as follows: Oral bioavailability in rat at 15 mg/kg, po. Format: ADME, organism-based. To be noted: in vivo.
Data set [6] is described as follows: Volume of distribution in dog at 2.5 mg/kg, iv and 10 mg/kg, po. Format: ADME, organism-based, Canis lupus familiaris. To be noted: in vivo.
Data set [7] can be described thus: Clearance in dog at 2.5 mg/kg, iv and 10 mg/kg, po. The note with it: in vivo. The data set is classed as ADME, organism-based, Canis lupus familiaris.
The test system of data set [8] is Rattus norvegicus. In words: AUC (0 to infinity) in rat at 15 mg/kg, iv and po. The arrangement: dose 15 mg/kg, route oral. The data set is classed as ADME, organism-based, Plasma. The note with it: in vivo.
Data set [9] in a line: Plasma concentration in mouse at 10 mg/kg, po after 60 mins. The arrangement: dose 10 mg/kg, route oral. The data set is classed as ADME, organism-based.
The test system of the next data set is Canis familiaris. In words: AUC (0 to infinity) in dog at 2.5 mg/kg, iv and 10 mg/kg, po. The note with it: in vivo. The data set is classed as ADME, organism-based, Canis lupus familiaris, Plasma.
The species entered for another data set is Homo sapiens. In words: Cytotoxicity against BRCA1-deficient human […] cells upto 4 uM after 7 to 14 days by clonogenic assay. The data set is classed as functional, cell-based.
The test system of data set [10] is Rattus norvegicus. As to the kind of experiment: Volume of distribution in rat at 15 mg/kg, iv and po. The data set is classed as ADME, organism-based. The arrangement: dose 15 mg/kg, route oral. To be noted: in vivo.
Data set [11] is described as follows: Half life in rat at 15 mg/kg, iv and po. Format: ADME, organism-based. The arrangement: dose 15 mg/kg, route oral. The note with it: in vivo.
A short description of data set [12]: Plasma concentration in mouse at 10 mg/kg, po after 30 mins. The data set is classed as ADME, organism-based. Details: dose 10 mg/kg, route oral.
A short description of data set [13]: Solubility of compound in 0.1 M phosphate buffer after 24 hrs by HPLC-UV method. The data set is classed as physicochemical.
In a further data set the test system is Mus musculus. In words: Toxicity in human SW620 cells xenografted mouse assessed as maximum mean body weight loss after 3 days. Format: organism-based, SW-620. To be noted: in vivo, 72 h.
The test system of data set [14] is SW-620. As to the kind of experiment: Antitumor activity in human SW620 cells xenografted mouse assessed as days to double the relative tumor volume at 50 mg/kg, po once daily for 5 consecutive days. The data set is classed as functional. A general note: Xenograft models place foreign cells or tissue in a host animal.

The structures appear in SMILES notation. Converted amounts (≈) assume the structure as drawn. The source made the active and inactive calls.

Broadly, the IC50 is the point on the concentration scale where inhibition reaches its midpoint. Broadly, the bioavailability is dose-corrected exposure relative to a reference, in per cent. Usually half-life stands for the time needed for the level to fall by half in the phase considered. Broadly, the solubility is the concentration that dissolves in the medium under given conditions. A high value points to a readily soluble substance.

Poly [ADP-ribose] polymerase 1, sequence (P09874 whole entry): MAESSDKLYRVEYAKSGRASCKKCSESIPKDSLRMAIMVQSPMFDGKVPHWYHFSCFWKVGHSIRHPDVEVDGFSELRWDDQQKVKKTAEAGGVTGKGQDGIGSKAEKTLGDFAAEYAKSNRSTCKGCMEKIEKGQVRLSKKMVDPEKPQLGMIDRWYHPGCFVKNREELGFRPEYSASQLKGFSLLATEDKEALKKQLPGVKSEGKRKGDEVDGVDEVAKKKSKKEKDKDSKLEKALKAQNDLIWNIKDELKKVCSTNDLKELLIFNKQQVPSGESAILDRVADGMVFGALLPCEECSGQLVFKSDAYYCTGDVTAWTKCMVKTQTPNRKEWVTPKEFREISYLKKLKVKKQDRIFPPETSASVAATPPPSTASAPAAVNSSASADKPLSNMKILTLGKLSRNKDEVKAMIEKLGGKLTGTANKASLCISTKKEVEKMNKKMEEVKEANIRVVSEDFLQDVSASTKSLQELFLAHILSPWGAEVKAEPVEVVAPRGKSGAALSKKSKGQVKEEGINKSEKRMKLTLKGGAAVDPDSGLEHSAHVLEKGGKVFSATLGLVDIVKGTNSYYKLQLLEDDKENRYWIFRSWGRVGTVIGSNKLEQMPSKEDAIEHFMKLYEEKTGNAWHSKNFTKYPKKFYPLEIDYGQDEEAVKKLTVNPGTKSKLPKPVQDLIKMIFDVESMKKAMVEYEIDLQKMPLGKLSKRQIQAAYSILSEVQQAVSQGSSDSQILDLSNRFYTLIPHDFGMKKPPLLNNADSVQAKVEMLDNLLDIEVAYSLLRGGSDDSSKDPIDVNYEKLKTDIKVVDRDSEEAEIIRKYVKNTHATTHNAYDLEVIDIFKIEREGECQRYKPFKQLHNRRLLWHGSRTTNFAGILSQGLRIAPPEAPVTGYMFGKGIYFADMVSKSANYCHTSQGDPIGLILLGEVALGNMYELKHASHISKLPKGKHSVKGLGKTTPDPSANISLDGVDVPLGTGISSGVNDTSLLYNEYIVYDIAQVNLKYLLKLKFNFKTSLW

In the case of `O=C(c1cc(Cc2n[nH]c(=O)c3ccccc23)ccc1F)N1CCCNCC1`, in the data set with HeLa, the PF50 turned out to be 12.6.
Consider `O=C(c1cc(Cc2n[nH]c(=O)c3ccccc23)ccc1F)N1CCN(c2ncccn2)CC1`, for which the IC50 in data set [1] was 3 nM. Also, in the data set with HeLa, the PF50 is more than 40.
As to `O=C(c1cccc(Cc2n[nH]c(=O)c3ccccc23)c1)N1CCN(CCO)CC1`, the IC50 in data set [1] is 39 nM. Also, the PF50 in the data set with HeLa is given as 1.8.
For the compound `O=C(c1cc(Cc2n[nH]c(=O)c3ccccc23)ccc1F)N1CCNCC1`, half-maximal inhibition in [1] (IC50) required 5 nM. In the data set on HeLa, the PF50 was 8.6.
On the same counts, the results for `O=C(c1cccc(Cc2n[nH]c(=O)c3ccccc23)c1)N1CCCN(Cc2ccccc2)CC1` are 18 nM and 2.2.
On the same counts, the results for `CN1CCN(C(=O)c2cccc(Cc3n[nH]c(=O)c4ccccc34)c2)CC1` are 88 nM and 1.02.
Turning to `O=C(c1cc(Cc2n[nH]c(=O)c3ccccc23)ccc1F)N1CCN(C(=O)C2CC2)CC1` [OLAPARIB], the Activity entry in the data set on SW-620 [2] was “Dose-dependent effect”. For the same compound, the bioavailability in data set [3] and in data set [5] was 100% in each case. The outcome in the data set on HCC1937 and in the data set filed under Homo sapiens was Active. The half-life is 170 min in [4] and 53 min in data set [11]. Besides, the Vd came out at 1.3 L/kg in [6] and 1.18 L/kg in the data set with Rattus norvegicus [10]. The compound further returned a clearance in data set [7] of 5.4 mL/min/kg. The AUC in the data set with Rattus norvegicus [8] turned out to be 304 µg/min/mL; in the data set on Canis familiaris, 511 µg/min/mL. The compound also came in with a concentration at 1 h in data set [9] of 590 ng/mL. For the same compound, the concentration at 0.5 h in data set [12] was 230 ng/mL. For the same compound, the PF50 with HeLa is recorded as 25.8.
Regarding `CN1CCN(C(=O)c2cc(Cc3n[nH]c(=O)c4ccccc34)ccc2F)CC1`, the IC50 in [1] is 13 nM. Also, the PF50 with HeLa was 2.5.
The matching figures for `O=C(c1cc(Cc2n[nH]c(=O)c3ccccc23)ccc1F)N1CCN(c2ccccn2)CC1`: 2 nM and more than 40.
In data set [13], `O=C(c1cc(Cc2n[nH]c(=O)c3ccccc23)ccc1F)N1CCN(C(=O)C2CCCO2)CC1` (configuration not stated) gave a solubility at 24 h of 980 µg/mL (≈ 2110 µM). The PF50 in the data set with HeLa is 39.4.
On to `O=C(c1cc(Cc2n[nH]c(=O)c3ccccc23)ccc1F)N1CCCN(C(=O)C2CC2)CC1`, for which it took 12 nM to reach half-maximal inhibition in data set [1] (IC50). The PF50 with HeLa was determined as 4.2.
Compound `O=C(c1cc(Cc2n[nH]c(=O)c3ccccc23)ccc1F)N1CCN(c2ccccc2)CC1` had a concentration at 1 h in data set [9] of 310 ng/mL. The compound also came in with a concentration at 0.5 h in data set [12] of 700 ng/mL. Further, the PF50 in the data set with HeLa worked out at 5.2.
Regarding `O=C(c1cc(Cc2n[nH]c(=O)c3ccccc23)ccc1F)N1CCN(C(=O)C2CCOC2)CC1` (configuration not stated), the concentration at 1 h in data set [9] is 150 ng/mL. In [1], this compound gave an IC50 of 2 nM. The compound further gave a concentration at 0.5 h in data set [12] of 160 ng/mL. Moreover, the PF50 with HeLa is given as 29.8.
Compound `O=C(c1cccc(Cc2n[nH]c(=O)c3ccccc23)c1)N1CCN(C(=O)N2CCOCC2)CC1` returned an IC50 in data set [1] of 8 nM. Besides, the PF50 with HeLa came to 2.3.
In the case of `O=C(c1cc(Cc2n[nH]c(=O)c3ccccc23)ccc1F)N1CCCN(CCO)CC1`, in the data set with HeLa, the PF50 worked out at 18.
On to `Cn1nnc2c(C(N)=O)ncn2c1=O` [TEMOZOLOMIDE], for which, in the data set on Mus musculus, the Activity is 6%. In addition, the Time with SW-620 [14] was 44 days.
Consider `O=C(c1cccc(Cc2n[nH]c(=O)c3ccccc23)c1)N1CCCN(CCO)CC1`, for which the IC50 in data set [1] turned out to be 18 nM. Besides, the PF50 in the data set with HeLa was determined as 5.4.
On the same counts, the results for `O=C(c1cccc(Cc2n[nH]c(=O)c3ccccc23)c1)N1CCCN(C(=O)N2CCOCC2)CC1` are 20 nM and 1.4.
On the same counts, the results for `CCS(=O)(=O)N1CCN(C(=O)c2cccc(Cc3n[nH]c(=O)c4ccccc34)c2)CC1` are 12 nM and 4.6.
Take `O=C(c1cccc(Cc2n[nH]c(=O)c3ccccc23)c1)N1CCNCC1`: the PF50 in the data set with HeLa came to 3.7.
In turn, `O=C(c1cccc(Cc2n[nH]c(=O)c3ccccc23)c1)N1CCN(c2ncccn2)CC1` displayed a solubility at 24 h in [13] of 1 µg/mL (≈ 2.34 µM). Also, the concentration at 1 h in data set [9] came to 140 ng/mL. In data set [1], the half-maximal inhibitory concentration (IC50) was 2 nM. This compound displayed a concentration at 0.5 h in [12] of 300 ng/mL. Besides, in the data set on HeLa, the PF50 is more than 40.
`O=C(c1cc(Cc2n[nH]c(=O)c3ccccc23)ccc1F)N1CCN(C(=O)C2CCCCC2)CC1`: inhibition in data set [1] was half-maximal at 15 nM (IC50). In the data set on HeLa, the PF50 came to 11.1.
On the same counts, the results for `CC(=O)N1CCN(C(=O)c2cc(Cc3n[nH]c(=O)c4ccccc34)ccc2F)CC1` are 6 nM and 7.97.
As for `CCN1CCN(C(=O)c2cc(Cc3n[nH]c(=O)c4ccccc34)ccc2F)CC1`, in [1], the 50% inhibitory concentration (IC50) came out at 6 nM. In addition, the PF50 with HeLa is listed as 7.7.
Turning to `CCS(=O)(=O)N1CCN(C(=O)c2cc(Cc3n[nH]c(=O)c4ccccc34)ccc2F)CC1`, in data set [1], half-maximal inhibition (IC50) required 8 nM. The PF50 in the data set with HeLa was 4.9.
For `O=C(c1cc(Cc2n[nH]c(=O)c3ccccc23)ccc1F)N1CCN(C(=O)N2CCOCC2)CC1`, the PF50 in the data set with HeLa amounted to 8.4.
`O=C(c1cc(Cc2n[nH]c(=O)c3ccccc23)ccc1F)N1CCN(C(=O)C2CCCC2)CC1`: it took 2 nM to reach half-maximal inhibition in [1] (IC50). In the data set on HeLa, the PF50 came to 11.8.
On the same counts, the results for `CC(=O)N1CCCN(C(=O)c2cc(Cc3n[nH]c(=O)c4ccccc34)ccc2F)CC1` are 12 nM and 3.7.
The matching figures for `O=C(c1cccc(Cc2n[nH]c(=O)c3ccccc23)c1)N1CCN(c2ccccn2)CC1`: 10 nM and 24.3.
On the same counts, the results for `O=C(c1cc(Cc2n[nH]c(=O)c3ccccc23)ccc1F)N1CCCN(C(=O)N2CCOCC2)CC1` are 8 nM and 2.5.
`O=C(c1cc(Cc2n[nH]c(=O)c3ccccc23)ccc1F)N1CCN(CCO)CC1`: 12 nM corresponded to half-maximal inhibition in data set [1] (IC50). Also, the PF50 with HeLa came to 3.3.
The matching figures for `CCCCN1CCN(C(=O)c2cc(Cc3n[nH]c(=O)c4ccccc34)ccc2F)CC1`: 5 nM and 6.4.
As to `O=C(c1ccccc1)N1CCN(C(=O)c2cccc(Cc3n[nH]c(=O)c4ccccc34)c2)CC1`, the IC50 in data set [1] came to 11 nM. For the same compound, in the data set with HeLa, the PF50 is given as 7.2.
`O=C(c1cc(Cc2n[nH]c(=O)c3ccccc23)ccc1F)N1CCN(CC2CC2)CC1`: the PF50 with HeLa came to 6.5.
As to `CCS(=O)(=O)N1CCCN(C(=O)c2cccc(Cc3n[nH]c(=O)c4ccccc34)c2)CC1`, it took 23 nM to reach half-maximal inhibition in data set [1] (IC50). Further, the PF50 with HeLa was found to be 1.4.
`O=C(c1ccccc1)N1CCN(C(=O)c2cc(Cc3n[nH]c(=O)c4ccccc34)ccc2F)CC1` showed an IC50 in data set [1] of 6 nM. In the data set on HeLa, the PF50 is recorded as 8.2.
For `O=C(c1cccc(Cc2n[nH]c(=O)c3ccccc23)c1)N1CCN(c2ccccc2)CC1`, the IC50 in data set [1] stood at 51 nM.
The compound `CCCN1CCN(C(=O)c2cc(Cc3n[nH]c(=O)c4ccccc34)ccc2F)CC1` registered a concentration for half-maximal inhibition (IC50) in [1] of 6 nM. The PF50 with HeLa was determined as 7.3.
In the case of `CCC(=O)N1CCN(C(=O)c2cc(Cc3n[nH]c(=O)c4ccccc34)ccc2F)CC1`, the bioavailability in data set [5] came to 40%. The AUC with Rattus norvegicus [8] was 423 µg/min/mL. The compound also registered a concentration at 1 h in [9] of 300 ng/mL. In the data set on Rattus norvegicus [10], this compound had a Vd of 0.91 L/kg. The compound also registered a half-life in [11] of 55 min. Moreover, inhibition in data set [1] was half-maximal at 5 nM (IC50). In addition, in data set [12], the concentration at 0.5 h amounted to 670 ng/mL. In the data set with HeLa, the PF50 turned out to be 24.4.

Source of the values: ChEMBL document CHEMBL1140140, “4-[3-(4-cyclopropanecarbonylpiperazine-1-carbonyl)-4-fluorobenzyl]-2H-phthalazin-1-one: a novel bioavailable inhibitor of poly(ADP-ribose) polymerase-1” (J Med Chem, 2008).
